Laboratory results published in patent US7196114B2, “Substituted 3-(benzoylureido) thiophene derivatives, processes for preparing them and their use” (Sanofi-Aventis Deutschland GmbH, priority 2003, dated 2007).

Experiments:
[1] = biological target: T1, human glycogen phosphorylase a (Homo sapiens, UniProt P06737); assay: Glycogen phosphorylase a activity test; format: biochemical; settings: inhibition of GPa in vitro, reverse direction (glycogen synthesis from glucose 1-phosphate, released inorganic phosphate, absorption at 820 nm)
T1 sequence (P06737 1-847): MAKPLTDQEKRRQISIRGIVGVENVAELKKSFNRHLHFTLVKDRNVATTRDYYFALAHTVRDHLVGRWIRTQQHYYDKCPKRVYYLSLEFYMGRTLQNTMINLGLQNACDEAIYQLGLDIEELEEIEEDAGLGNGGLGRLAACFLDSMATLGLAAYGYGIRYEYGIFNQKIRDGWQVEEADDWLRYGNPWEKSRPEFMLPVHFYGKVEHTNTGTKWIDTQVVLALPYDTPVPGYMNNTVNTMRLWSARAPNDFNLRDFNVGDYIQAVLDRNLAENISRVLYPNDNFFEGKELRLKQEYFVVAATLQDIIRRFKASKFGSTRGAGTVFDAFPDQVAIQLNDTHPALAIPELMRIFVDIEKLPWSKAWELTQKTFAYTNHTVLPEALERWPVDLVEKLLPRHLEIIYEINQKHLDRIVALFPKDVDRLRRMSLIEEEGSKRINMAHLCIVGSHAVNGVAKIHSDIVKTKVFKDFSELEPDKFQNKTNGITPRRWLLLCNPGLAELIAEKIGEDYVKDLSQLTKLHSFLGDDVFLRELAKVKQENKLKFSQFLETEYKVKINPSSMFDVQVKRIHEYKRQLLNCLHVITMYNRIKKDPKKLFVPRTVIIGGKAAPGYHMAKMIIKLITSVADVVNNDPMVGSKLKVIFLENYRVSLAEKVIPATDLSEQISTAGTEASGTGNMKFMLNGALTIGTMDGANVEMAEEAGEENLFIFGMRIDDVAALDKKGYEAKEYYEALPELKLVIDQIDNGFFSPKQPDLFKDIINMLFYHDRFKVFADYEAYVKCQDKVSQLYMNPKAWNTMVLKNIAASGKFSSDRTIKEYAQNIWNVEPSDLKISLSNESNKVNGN

Row | Compound | IC50 [1] [nM] | melting point
1 | O=C(NC(=O)c1cc(F)c(F)cc1Cl)Nc1ccsc1-c1n[nH]c(=O)o1 [Example 1d, 1-(2-Chloro-4,5-difluorobenzoyl)-3-[2-(5-oxo-4,5-dihydro[1,3,4]oxadiazol-2-yl)thiophen-3-yl]urea] | 30 | 236.1 °C
2 | Nc1nnc(-c2sccc2NC(=O)NC(=O)c2cc(F)c(F)cc2Cl)o1 [Example 2c, 1-[2-(5-Amino[1,3,4]oxadiazol-2-yl)thiophen-3-yl]-3-(2-chloro-4,5-difluorobenzoyl)urea] | 450 | –
3 | O=C(NC(=O)c1cc(F)c(F)cc1Cl)Nc1cc(-c2ccc(F)cc2)sc1C(=O)O [Example 3b, 3-[3-(2-Chloro-4,5-difluorobenzoyl)ureido]-5-(4-fluorophenyl)thiophene-2-carboxylic acid] | 10 | 227.7 °C
4 | O=C(NC(=O)c1cc(F)c(F)cc1Cl)Nc1cc(S(=O)(=O)N2CCCCC2)sc1N1CCC(C(=O)O)CC1 [Example 4d, 1-[3-[3-(2-Chloro-4,5-difluorobenzoyl)ureido]-5-(piperidine-1-sulfonyl)-thiophen-2-yl]piperidine-4-carboxylic acid] | 110 | 219.9 °C
5 | NC(=O)c1sccc1NC(=O)NC(=O)c1cc(F)c(F)cc1Cl [Example 6] | 700 | –
6 | CC(=O)c1sc(-c2ccccc2)cc1NC(=O)NC(=O)c1cc(F)c(F)cc1Cl [Example 15] | 170 | 204.8 °C
7 | NC(=O)c1sc(-c2ccccc2)cc1NC(=O)NC(=O)c1cc(F)c(F)cc1Cl [Example 17] | 30 | > 300 °C
8 | O=C(NC(=O)c1cc(F)c(F)cc1Cl)Nc1cc(-c2ccccc2)sc1C(=O)O [Example 21] | 10 | 226.5 °C
9 | NC(=O)c1sc(-c2cccs2)cc1NC(=O)NC(=O)c1cc(F)c(F)cc1Cl [Example 23] | 50 | > 250 °C (dec.)
10 | COc1ccc(-c2cc(NC(=O)NC(=O)c3cc(F)c(F)cc3Cl)c(C(N)=O)s2)cc1 [Example 24] | 40 | > 300 °C
11 | O=C(NC(=O)c1cc(F)c(F)cc1Cl)Nc1cscc1-c1ccccc1 [Example 30] | 1400 | –
12 | O=C(NC(=O)c1ccc(F)cc1Cl)Nc1ccsc1-c1nnn[nH]1 [Example 33] | 80 | 219.8 °C
